The values that follow come from patent US10287530B2, “Surfactants based on monounsaturated fatty alcohol derivatives” (priority 2013, dated 2019).

Like-named read-outs stand apart in the source and are kept apart here.

The nature of series [1]: Surfactant phase behavior study by cross-polarized microscopy. The note with it: in deionized water, room temperature (20-22° C.); boundaries are estimates (±5%). Format: physicochemical. Here is the method: Phase behavior is observed using an Olympus BH-2 cross-polarized microscope at 100-400× and room temperature (20° C. to 22° C.). The monounsaturated C11 alcohol derivatives (sulfates, ethoxylate sulfates, and alcohol ethoxylates) are compared with their saturated analogs. Samples are prepared by diluting the most concentrated product gradually with deionized water. When the surfactant concentration approaches a phase transition, the concentration is varied at 2-4% intervals to estimate the phase boundary. The actives level reported in Table 6 for each phase boundary is within ±5% of the true boundary. Samples are loaded between a microscope slide and cover glass and are allowed to equilibrate before observation. Microscopic texture is analyzed and used to determine the phase. For some samples, an AR 2000 rheometer (TA Instruments) is used to measure viscosity at 25° C. to further verify phase behavior.

Series [2] can be described thus: Interfacial tension (IFT) against light mineral oil, synergy study with cationic surfactant. Format: physicochemical. The note with it: for Synergy?: measured versus expected IFT of the 1:1 molar blend with Ammonyx Cetac 30, Sulfate, Sodium Salt. Here is the method:
(§1) The surfactant blends tested are prepared at a 1:1 molar ratio without any pH adjustment. Dilutions are made using deionized water to the desired actives level. Actives amounts are wt. % unless indicated otherwise. Appearances are reported at ambient temperature for samples prepared within the last 24 h.
Interfacial tension (IFT) of all the individual components and their blends is measured at 0.1 wt. % active against light mineral oil at ambient temperature using a Kruss DSA-20 pendent drop tensiometer. The drop is blown out at 600 μL/min., and a video is recorded for 100 s. The video frames taken during the last 15 s are analyzed and used for the IFT calculation.
For blends having an IFT less than 0.5 mN/m, the IFT is determined using a spinning drop tensiometer (University of Texas 500) at 25° C. Oil density=0.877 g/cm^3 and surfactant density=0.997 g/cm^3 are used for the IFT calculation.
The expected IFT for a blend is calculated based on ideal mixing (non-synergistic) using the active component in each blend. The equation used is given as: Expected IFT=X*IFTa+(1−X)*IFTb where X is the actives % of component A, IFTa is the IFT of component A, and IFTb is the IFT of component B. If the measured IFT for a blend is less than the expected IFT, then the blend is synergistic. If the measured IFT for a blend is higher than the expected IFT, the system is antagonistic.

In series [3] the test system is zein, yellow corn (maize) protein. The settings on record: average of three runs. Here is the method: The zein test is based on solubilization by surfactants of a yellow corn (maize) protein that is normally insoluble in water unless it is denatured. The test gravimetrically determines the amount of zein dissolved by a surfactant solution. The solubility of zein in surfactant solutions correlates well with skin irritation or roughness caused by the surfactant. […] A higher zein number corresponds to a greater degree of irritation.
A 1% actives solution of each test surfactant (120 mL) is prepared. The pH of each solution is adjusted to about 7.0 with dilute aq. sulfuric acid or dilute aq. sodium hydroxide. The surfactant solution is warmed to 45° C. Zein powder (1.50 g) is added to each of three jars. Surfactant (25.0 g of 1% actives solution) is added to each jar, and to one empty jar to be used as a blank. The solutions are mixed using magnetic stirring on a temperature-controlled hotplate at 45° C. for 60 min. Each mixture is then centrifuged (2500 rpm, 15 min.), and undissolved zein powder is isolated by vacuum filtration. The residue is washed with deionized water and dried (55° C., 24 h) to constant weight. The amount of undissolved zein protein is found gravimetrically, and the results from three runs are averaged to give the % of solubilized zein and zein number.

Series [4] can be described thus: Appearance and solubility of surfactants and of 1:1 molar blends with cationic surfactant. Format: physicochemical. The method, then: as §1
The format of series [5] is physicochemical. The note with it: for Emulsion stability, mL separation, 1 h / Emulsion stability, mL separation, 24 h: 342 ppm water. The method, then:
Surfactant candidates for water soluble herbicide applications are examined as a replacement for the anionic, nonionic, or anionic/nonionic blend portion and compared to a known industry adjuvant standard for use in paraquat, a water soluble herbicide concentrate formulation. A standard dilution test is conducted whereby the concentrates are diluted in water to determine if solubility is complete.
A known industry paraquat adjuvant (2.8 g) is added and vigorously mixed for 30 s. Deionized water (8.07 g) is added, and mixing resumes for 30 s. […] The cylinder is stoppered and inverted ten times. Solubility is recorded as complete or incomplete. Cylinders are allowed to stand and the amount (in mL) and type of separation are recorded after 30 min., 1 h, 2 h, and 24 h. Results of the solubility testing appear in Table 4 below.
An eight to ten mole alkyl phenol ethoxylate surfactant (0.7 g) is added and vigorously mixed for 30 s. Test sample (0.7 g) is added and mixing resumes for 30 s. Deionized water (4.03 g) is added, and mixing resumes for 30 s.
Test sample (0.7 g) is added and vigorously mixed for 30 s. Sodium linear alkylbenzene sulfonate (“NaLAS,” 0.7 g) is added and mixing resumes for 30 s. Deionized water (4.03 g) is added, and mixing resumes for 30 s.
Test sample (1.4 g) is added and vigorously mixed for 30 s. Deionized water (4.03 g) is added, and mixing resumes for 30 s.

Where [6] appears, read: Adjuvant (anionic/nonionic) test sample.

In the case of “Undecylenic Alcohol Sulfate, Sodium Salt [Unsat. C11 alcohol Na sulfate]”, the “Estimated Phase Region as a Function of % Actives Level: Isotropic Clear” value in series [1] is listed as 0-68 % actives. Further, the “Estimated Phase Region as a Function of % Actives Level: Solid/gum/paste” value in series [1] is reported as 68-100 % actives. In series [2] (1:1 molar blend of the anionic with Ammonyx Cetac 30, 0.1% actives, light mineral oil), the “IFT at 0.1% actives/mineral oil (blend)” value is recorded as 0.17 mN/m. Also, the “Calculated IFT (no synergy)” value in series [2] (expected IFT of the 1:1 molar blend with Ammonyx Cetac 30 by ideal mixing) is given as 3.16 mN/m. Also, the “Synergy?” value in series [2] (listed as Unsat C11 Na sulfate) was “very high”; in series [2] (listed as unsaturated C11 alcohol sulfate, sodium salt), “very high synergy”. In addition, the “IFT at 0.1% actives (single component)” value in series [2] (single component, 0.1 wt. % active against light mineral oil, ambient temperature) turned out to be 5.95 mN/m. The “% solubilized zein” value in series [3] (1% actives solution, pH about 7.0, 45° C., 60 min) was 9.6%. Moreover, the zein number in series [3] (relative to 1% actives Stepanol WA-Extra PCK (SLS) control = 100, higher = more irritating) is on record as 19.3. In addition, the Solubility entry in series [4] was “good”. Further, the “Emulsion stability, mL separation, 1 h” value in series [5] (setting [6]) is 0 mL; in series [5] (Anionic test sample) it was 0 mL; in series [5] (Nonionic test sample), 0.25 mL. Further, the “Emulsion stability, mL separation, 24 h” value is 0.25 mL in series [5] (setting [6]), 0 mL in series [5] (Anionic test sample) and 0.4 mL in series [5] (Nonionic test sample). For the same substance, the Rating entry in series [5] (overall, versus control) is listed as “good”.
